Experimental data published in publication PMC12040169 (PLOS Biology, 2025).

Experiment: in vitro
Details: human, hela cells, % viability

SMILES | viability at 28.5 h, 10 µM
CCc1nn(CCC(C)O)c(=O)c2cc3sc(C)cc3n12 (stereo not shown) [CBK282869] | 89.1%
CS(=O)(=O)c1ccc(-n2ncc(-c3cccc(C(F)(F)F)c3)n2)cc1 [CBK112672] | 95.6%
O=C1C2CCCCC2C(=O)N1c1ccc(Oc2ccc(Br)cc2)cc1 (stereo not shown) [CBK263531] | 116%
COc1ccccc1NC(=O)C(C)N1C(=O)c2ccccc2C1=O (stereo not shown) [CBK261043] | 92%
CC1(C)CC(=O)c2sc(NC(=O)c3cccc(C(F)(F)F)c3)nc2C1 [CBK019941] | 94.2%
Cc1c(C(=O)N(CC(=O)O)C2CC2)nnn1-c1ccc(Cl)cc1F [CBK304738] | 91.1%
Cc1csc(C(Cc2cccs2)NC(=O)C2CCOC2)n1 (stereo not shown) [CBK285123] | 106%
CN1CCC(Cc2nc(CC3CCCOC3)n(CC(F)(F)F)n2)CC1 (stereo not shown) [CBK306801] | 83.2%
CCN(CC)CCN(C)Cc1ccccc1Br [CBK026593] | 92.8%
O=C(/C=C\c1ccccc1)CC1(O)C(=O)N(Cc2cccc3ccccc23)c2ccccc21 (stereo not shown) [CBK264761] | 96.7%
COc1cccc(-n2ccn(C(=O)CCC3CCCC3)c2=O)c1 [CBK106625] | 91.1%
COC(=O)c1sccc1S(=O)(=O)N1CCN(c2ncnc3scc(C)c23)CC1 [CBK023600] | 94.2%
CC(=O)Nc1ccc(NCc2ncc(C(C)(C)C)o2)c(Cl)c1 [CBK306135] | 98.6%
CC1=C[C@@H](CN2CCC(O)CC2)[C@H](C(C)C)C[C@H]1Cc1nnc(-c2ccccc2)o1 [CBK289220] | 97.2%
C/C(=N\OCC(=O)N(Cc1ccccc1)c1ccccc1C(=O)O)c1cccs1 [CBK077414] | 94.2%
Cc1nc2c(C(=O)NCCCN3CCCC3=O)cnn2c(C)c1Cc1cccnc1 [CBK162151] | 108%
Cc1cc2nc(SCCO)[nH]c2cc1C [CBK027546] | 94.1%
CCOC(=O)C(C)n1nc(C)n2c(cc3ccsc32)c1=O (stereo not shown) [CBK284079] | 96.2%
CC1CCN(Cc2ccc(-c3nnn(CC(=O)NCc4ccc(O)cc4)n3)cc2)CC1 [CBK144156C] | 90.9%
COc1cc(/C=C2/SC(=N)NC2=O)ccc1OCc1ccccc1[N+](=O)[O-] [CBK262181] | 85.4%
O=C(N/N=C\c1ccccc1O)c1nc([N+](=O)[O-])n[nH]1 [CBK261475] | 99.8%
CN1CCN(c2nc(-c3ccccc3CO)cn3ccnc23)CC1 [CBK066347] | 87.1%

SMILES | viability at 28.5 h, 10 µM
Cc1ccc(C2(CN3CCN(Cc4cnc(C)n4C)CC3)CC2)cc1 [CBK282469] | 93.5%
Cc1cc(C(F)F)n2nc(C(=O)NCc3ccccc3F)nc2n1 [CBK266228] | 97.2%
CCc1nc2ccc(C(=O)N3CCCCC3)cn2c1N(C)C(=O)c1cccc(OC)c1 [CBK146392] | 113%
Cc1ccc2[nH]c3c(c2c1)CCNC31CCN(C(=O)Nc2c(C)noc2C)CC1 [CBK047071] | 83.1%
Nc1ccccc1CC(c1c[nH]c2ccccc12)c1c[nH]c2ccccc12 [CBK261780] | 103%
CN1CC(C(=O)N2CCC(c3cc4ccccc4cn3)CC2)CC1=O (stereo not shown) [CBK284870] | 96.8%
COCCN(Cc1cnn(C)c1)C(=O)c1nc2ccccn2c1F [CBK306892] | 100%
O=C(O)c1ccccc1-c1ccc(-c2cc(C(=O)O)c3cc(Cl)ccc3n2)o1 [CBK268699] | 91.1%
Cc1c(Cl)cccc1NC(=S)N1CCC(C(N)=O)(N2CCCCC2)CC1 [CBK264900] | 112%
Cc1c(CCC(=O)N2CCCC(C(=O)O)C2)c(=O)oc2c(C)c(O)ccc12 (stereo not shown) [CBK286764] | 88.5%
CCOC(=O)COc1c(Cl)cc(/C=C/c2[nH]c(=O)[nH]c(=O)c2[N+](=O)[O-])cc1Cl [CBK267003] | 91.2%
COc1ccc(C(NC(=O)N(C(C)C)C(C)C)c2nccn2C)cc1 (stereo not shown) [CBK283568] | 111%
COCC(=O)N1CCCC(c2nc(C)n3c(C)csc23)C1 (stereo not shown) [CBK285214] | 98.7%
O=C(/C=C/c1ccc(Cl)cc1Cl)NC(=S)Nc1ccccc1F [CBK264332] | 108%
O=C(c1ccccc1)n1cc(-c2ccccn2)c(N2CCOCC2)n1 [CBK021010] | 100%
O=C(CSc1ccc(Cl)cc1)NCCCN1CCOCC1 [CBK009390] | 99.6%
CCNC(=O)N1CCC(Oc2cc(C)ccc2F)(C(=O)O)CC1 [CBK307147] | 87.9%
COc1cc2c(cc1OC)/C(=C/c1ccc[nH]1)C(=O)N2 [CBK018342] | 57.7%
Oc1cccc2ccc(/C=N/N=C/c3ccc4cccc(O)c4n3)nc12 [CBK261127] | 89.3%
CC1CN(S(=O)(=O)c2ccc(NC(=O)C3CC(=O)Nc4cc(F)ccc43)cc2)CC(C)O1 (stereo not shown) [CBK297933] | 91.4%
CC(C)C(=O)NC(c1ccc(C(C)C)cc1)c1cc([N+](=O)[O-])c2cccnc2c1O (stereo not shown) [CBK265303] | 103%
CN(c1cc(F)ccc1[N+](=O)[O-])S(C)(=O)=O [CBK001365] | 82.1%

SMILES | viability at 28.5 h, 10 µM
COCC(=O)N[C@H]1CC(C)(C)[C@@H]2C[C@@](C)(O)CC[C@]12CCC(=O)N1CCCC1 [CBK289043] | 88.4%
COc1cc(C)nc(NCc2cnn(C)c2C)n1 [CBK306277] | 85.4%
O=C(CN1CCN(c2ccc([N+](=O)[O-])cn2)CC1)Nc1ccc2c(c1)OCO2 [CBK074679] | 115%
Nc1ccc(NC(=O)c2ccc(NC(=O)c3cnc(-c4ccccc4)c(-c4ccncc4)c3)cc2)cc1 [CBK037463] | 101%
CN(C)CCN(C)C(=O)Cc1csc(-c2cccc(Cl)c2)n1 [CBK282176] | 111%
CCC1CCCCN1S(=O)(=O)c1ccc(-n2ncc(Cl)c(Cl)c2=O)cc1 (stereo not shown) [CBK305038] | 13.9%
CCCCc1ccc(C(N)=O)nc1C(N)=O [CBK005061] | 88.8%
Oc1cccc(Sc2nc3ccccc3nc2C(F)(F)F)c1 [CBK093780] | 109%
CC(C)(C)OC(=O)N1CCCN(Cc2nc(-c3cccnc3)no2)CC1 [CBK305309] | 97.2%
O=C(Cc1csc(-c2ccc(Cl)cc2)n1)Nc1cccnc1 [CBK107300] | 101%
Clc1cccc(-c2cncc(NCC3CCOCC3)n2)c1 [CBK037237] | 103%
COc1ccc(N2CC(C(=O)Nc3ccc(C(=O)O)cc3)CC2=O)cc1 (stereo not shown) [CBK268782] | 88%
CC(=O)N[C@H](Cc1c[nH]c2ccccc12)C(=O)N1CCN(c2ccc(C(F)(F)F)cc2)CC1 [CBK091314] | 94.5%
CC(Cn1cncn1)NS(=O)(=O)c1cccc(C(=O)N2CCCCC2)c1 (stereo not shown) [CBK306594] | 86.7%
CC(C)NC(=O)C1CCCN(c2nc3ccccc3n2C)C1 (stereo not shown) [CBK282373] | 109%
O=c1ccc2cc(S(=O)(=O)Nc3ncc(Br)c4cccnc34)ccc2o1 [CBK073887] | 94%
O=C(NCc1n[nH]c(=O)c2ccccc12)Nc1ccc(F)cc1 [CBK287744] | 94.2%
Cn1cc(C(=O)N2CCCC3(C/C=C/COc4ccccc4C(=O)NCCNC3=O)C2)cn1 (stereo not shown) [CBK292102] | 96.4%
N#CCCN(CCN1CCCC1)S(=O)(=O)c1cccc2nsnc12 [CBK261141] | 99.3%
COc1ccc2nc(NC(=N)NC(=S)Nc3ccc(Cl)cc3)nc(C)c2c1 [CBK266677] | 88.3%
NC(=O)c1ccccc1NC(=O)CCSc1ccc([N+](=O)[O-])cc1Cl [CBK266396] | 80.1%
CC1CCN(Cc2ccc(-c3nnn(CC(=O)NCc4ccc([N+](=O)[O-])cc4)n3)cc2)CC1 [CBK144176C] | 101%

SMILES | viability at 28.5 h, 10 µM
CCN(CC)C(=O)C1CCCN(C(=O)NCCCSC)C1 (stereo not shown) [CBK156118] | 95.1%
COC1CCCN(Cc2cncn2C2CCCCC2)C1 (stereo not shown) [CBK306542] | 101%
Cn1c(=O)n(CC(=O)N2CCc3ccccc32)c2cccnc21 [CBK283792] | 106%
O=S(=O)(Nc1ccc(C(F)(F)F)cc1Cl)c1cc(Br)c(Cl)s1 [CBK057196] | 78.9%
CCCCOc1nccnc1/C=C/c1ccccc1 [CBK106890] | 92%
COc1ccc(C(=O)OC(C)(C)C)c(-c2cncc(NCc3ccco3)n2)c1 [CBK037751] | 87.8%
Cc1cc(O)cc(=O)n1Cc1ccccn1 [CBK291159] | 91.8%
CNS(=O)(=O)N1CCN(S(=O)(=O)NC)CC1 [CBK007064] | 93.7%
COc1ccccc1-c1nccnc1OCc1cccs1 [CBK106819] | 88.4%
COc1cccc2c1CCN=C2C[C@H]1CN(C(=O)C2CC2)CC[C@H]1CC(=O)O [CBK289164] | 94.5%
Cc1nccn1CC1(O)CCN(CC(C)c2ccccc2)CC1 (stereo not shown) [CBK284954] | 107%
CN1CCC(N2CCN(C(=O)C3(c4ccccc4)CCCC3)CC2)CC1 [CBK149096] | 99.3%
O=C(CC12CC3CC(CC(C3)C1)C2)NCC(=O)Nc1ccc2[nH]c(=O)[nH]c2c1 [CBK295349] | 85.3%
COc1cccc(C(=O)NC(c2ccc(OC)c(OC)c2)c2cc(Cl)c3cccnc3c2O)c1 (stereo not shown) [CBK264048] | 95.4%
CC(C)(C)C(=O)N1CCc2cc(C(O)CN3CCCC3)ccc21 (stereo not shown) [CBK282923] | 93%
COc1ccc(C(C)c2cc3c(cc2OCCO)OCO3)c(F)c1 (stereo not shown) [CBK200111] | 60.4%
COc1ccc([N+](=O)[O-])cc1NC(=O)c1cc(-c2cccnc2)nc2ccc(C)cc12 [CBK267757] | 86.8%
Cc1cc2ccccc2n2c(SCC(=O)NCCc3ccccc3)nnc12 [CBK265682] | 111%
CCOc1ccc(S(=O)(=O)N(C)c2ccc(OCC(=O)O)cc2)cc1 [CBK296119] | 102%
CN(C)c1ccc(-n2ncc(-c3ccccc3C(F)(F)F)n2)cc1 [CBK112716] | 92.4%
CCN(C(=O)Cn1c(=O)cc(C)c2ccccc21)C1CCN(C)CC1 [CBK281871] | 86.8%
CC1(C)CC(N2CNC(=N)N(C#N)C2)CC(C)(C)N1 [CBK262008] | 90.7%
